Measurements from paper PMC3433743 (Bioorganic & medicinal chemistry letters, 2012).
“Also recorded” adds a separate entry of the source. Like-named read-outs stand apart in the source and are kept apart here.

Legend:
[1] = cited from earlier work
[2] = target: LRRK2[A2016T] (Homo sapiens, UniProt Q5S007, A2016T); assay: LRRK2 enzymatic assay, A2016T mutant; conditions: biochemical, Fig. 1
[3] = target: GFP-LRRK2[A2016T] (Homo sapiens, UniProt Q5S007, A2016T); type: cell-based; conditions: HEK293, LRRK2[A2016T], 90 min
[4] = target: CAMKKβ (Homo sapiens, UniProt Q96RR4); assay: Radioactivity-based enzymatic kinase panel; conditions: read-out: Inhibition of kinase activity
[5] = target: T1, TSSK1 (Homo sapiens, UniProt Q9BXA7); assay: Radioactivity-based enzymatic kinase panel; conditions: read-out: Inhibition of kinase activity
T1 sequence (Q9BXA7 1-367): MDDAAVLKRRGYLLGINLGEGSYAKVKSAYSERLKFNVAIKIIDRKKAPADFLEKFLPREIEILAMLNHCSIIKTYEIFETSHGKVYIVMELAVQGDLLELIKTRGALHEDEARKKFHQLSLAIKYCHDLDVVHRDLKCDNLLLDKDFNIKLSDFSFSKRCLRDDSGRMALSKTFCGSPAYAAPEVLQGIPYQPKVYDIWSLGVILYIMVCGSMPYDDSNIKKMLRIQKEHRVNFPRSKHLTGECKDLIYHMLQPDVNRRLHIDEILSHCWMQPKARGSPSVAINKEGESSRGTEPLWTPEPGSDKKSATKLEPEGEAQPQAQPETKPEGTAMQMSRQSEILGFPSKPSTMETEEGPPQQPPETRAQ

[6] = target: endogenous LRRK2 (Mus musculus, UniProt Q5S006); type: in vivo
[7] = target: CHK2 (Homo sapiens, UniProt O96017); assay: Radioactivity-based enzymatic kinase panel; conditions: read-out: Inhibition of kinase activity
[8] = target: T2, NUAK1 (Homo sapiens, UniProt O60285); assay: Radioactivity-based enzymatic kinase panel; conditions: read-out: Inhibition of kinase activity
T2 sequence (O60285 1-661): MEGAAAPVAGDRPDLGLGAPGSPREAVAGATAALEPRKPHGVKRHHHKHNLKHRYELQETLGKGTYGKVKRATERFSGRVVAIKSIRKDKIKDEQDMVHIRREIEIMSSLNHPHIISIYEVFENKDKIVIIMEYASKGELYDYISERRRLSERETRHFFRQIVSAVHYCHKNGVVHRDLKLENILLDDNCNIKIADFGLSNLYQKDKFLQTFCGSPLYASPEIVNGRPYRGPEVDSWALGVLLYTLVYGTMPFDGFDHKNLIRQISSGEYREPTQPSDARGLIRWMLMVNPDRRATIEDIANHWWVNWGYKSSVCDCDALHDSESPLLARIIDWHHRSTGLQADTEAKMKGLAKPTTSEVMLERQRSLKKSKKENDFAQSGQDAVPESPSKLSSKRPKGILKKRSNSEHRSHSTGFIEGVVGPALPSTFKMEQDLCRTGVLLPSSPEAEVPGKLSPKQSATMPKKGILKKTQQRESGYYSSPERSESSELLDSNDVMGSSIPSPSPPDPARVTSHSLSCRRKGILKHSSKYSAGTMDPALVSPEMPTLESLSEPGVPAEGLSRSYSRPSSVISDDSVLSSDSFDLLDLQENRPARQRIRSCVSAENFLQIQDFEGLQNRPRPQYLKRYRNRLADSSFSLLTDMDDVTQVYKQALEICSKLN

[9] = target: PHKã1(PBK) (Homo sapiens, UniProt Q16816); assay: Radioactivity-based enzymatic kinase panel; conditions: read-out: Inhibition of kinase activity

Chain of LRRK2[A2016T] (Q5S007 whole entry A2016T): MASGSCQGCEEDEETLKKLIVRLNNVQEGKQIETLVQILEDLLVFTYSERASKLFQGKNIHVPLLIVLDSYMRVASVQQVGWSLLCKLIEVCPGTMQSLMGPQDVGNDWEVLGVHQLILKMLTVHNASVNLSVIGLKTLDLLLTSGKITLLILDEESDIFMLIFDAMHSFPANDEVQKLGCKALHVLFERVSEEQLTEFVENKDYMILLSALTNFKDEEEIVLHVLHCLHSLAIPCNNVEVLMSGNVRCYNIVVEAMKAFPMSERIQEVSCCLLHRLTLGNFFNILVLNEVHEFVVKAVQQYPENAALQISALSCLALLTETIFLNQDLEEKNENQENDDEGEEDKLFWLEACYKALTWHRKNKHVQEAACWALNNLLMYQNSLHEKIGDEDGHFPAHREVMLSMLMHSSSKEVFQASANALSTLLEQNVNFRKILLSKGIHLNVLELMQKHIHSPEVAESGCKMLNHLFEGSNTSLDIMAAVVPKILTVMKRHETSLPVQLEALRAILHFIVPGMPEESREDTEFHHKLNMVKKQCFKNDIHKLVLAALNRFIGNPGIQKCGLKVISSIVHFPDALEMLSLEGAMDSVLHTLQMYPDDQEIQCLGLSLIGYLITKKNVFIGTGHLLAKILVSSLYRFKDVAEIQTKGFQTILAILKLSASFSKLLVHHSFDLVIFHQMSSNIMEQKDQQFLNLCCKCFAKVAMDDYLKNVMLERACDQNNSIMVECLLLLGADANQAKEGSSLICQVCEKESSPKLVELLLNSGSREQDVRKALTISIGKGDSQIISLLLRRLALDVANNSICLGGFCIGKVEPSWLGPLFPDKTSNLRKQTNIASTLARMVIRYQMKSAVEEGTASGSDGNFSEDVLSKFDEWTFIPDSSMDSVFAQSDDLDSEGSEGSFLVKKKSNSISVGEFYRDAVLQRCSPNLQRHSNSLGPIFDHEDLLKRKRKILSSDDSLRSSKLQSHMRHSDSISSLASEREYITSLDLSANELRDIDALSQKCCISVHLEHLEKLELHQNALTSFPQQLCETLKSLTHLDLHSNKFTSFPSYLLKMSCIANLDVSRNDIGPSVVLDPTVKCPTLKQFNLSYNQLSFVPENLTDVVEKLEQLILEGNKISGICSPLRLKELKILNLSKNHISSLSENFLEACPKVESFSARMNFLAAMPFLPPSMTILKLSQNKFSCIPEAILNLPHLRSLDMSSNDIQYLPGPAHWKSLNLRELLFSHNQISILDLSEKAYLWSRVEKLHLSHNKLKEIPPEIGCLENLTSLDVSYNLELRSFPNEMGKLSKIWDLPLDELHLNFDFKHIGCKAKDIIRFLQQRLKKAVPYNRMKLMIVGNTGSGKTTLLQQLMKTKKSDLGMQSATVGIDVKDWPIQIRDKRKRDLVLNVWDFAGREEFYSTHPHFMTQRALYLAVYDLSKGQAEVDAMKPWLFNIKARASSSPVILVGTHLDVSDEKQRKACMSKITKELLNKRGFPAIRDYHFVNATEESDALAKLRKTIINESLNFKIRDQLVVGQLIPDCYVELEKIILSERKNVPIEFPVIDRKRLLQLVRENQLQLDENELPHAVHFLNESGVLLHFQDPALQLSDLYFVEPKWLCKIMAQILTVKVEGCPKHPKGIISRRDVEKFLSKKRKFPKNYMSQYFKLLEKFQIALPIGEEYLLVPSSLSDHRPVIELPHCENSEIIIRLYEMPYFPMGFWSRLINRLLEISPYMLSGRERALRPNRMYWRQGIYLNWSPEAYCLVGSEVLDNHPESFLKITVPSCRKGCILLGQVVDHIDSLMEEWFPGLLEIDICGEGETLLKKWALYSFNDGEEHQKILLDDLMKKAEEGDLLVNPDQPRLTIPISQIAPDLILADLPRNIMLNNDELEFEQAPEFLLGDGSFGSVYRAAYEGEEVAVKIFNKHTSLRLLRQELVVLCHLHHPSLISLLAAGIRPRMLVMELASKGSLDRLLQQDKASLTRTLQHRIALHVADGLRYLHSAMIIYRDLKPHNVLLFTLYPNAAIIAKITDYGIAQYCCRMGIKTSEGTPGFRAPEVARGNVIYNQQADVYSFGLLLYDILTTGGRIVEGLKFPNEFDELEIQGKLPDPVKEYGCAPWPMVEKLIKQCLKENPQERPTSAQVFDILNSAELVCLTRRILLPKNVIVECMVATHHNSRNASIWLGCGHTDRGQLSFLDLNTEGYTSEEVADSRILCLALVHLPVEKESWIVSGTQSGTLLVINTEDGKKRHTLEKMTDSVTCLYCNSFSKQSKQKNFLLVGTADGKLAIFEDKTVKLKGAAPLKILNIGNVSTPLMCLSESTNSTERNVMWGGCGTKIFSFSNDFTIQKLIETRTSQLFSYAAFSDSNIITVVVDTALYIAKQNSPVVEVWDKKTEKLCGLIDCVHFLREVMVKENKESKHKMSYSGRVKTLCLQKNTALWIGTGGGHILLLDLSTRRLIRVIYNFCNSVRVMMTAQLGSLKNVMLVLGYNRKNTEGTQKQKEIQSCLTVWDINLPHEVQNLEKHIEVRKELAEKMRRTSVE
Chain of endogenous LRRK2 (Q5S006 whole entry): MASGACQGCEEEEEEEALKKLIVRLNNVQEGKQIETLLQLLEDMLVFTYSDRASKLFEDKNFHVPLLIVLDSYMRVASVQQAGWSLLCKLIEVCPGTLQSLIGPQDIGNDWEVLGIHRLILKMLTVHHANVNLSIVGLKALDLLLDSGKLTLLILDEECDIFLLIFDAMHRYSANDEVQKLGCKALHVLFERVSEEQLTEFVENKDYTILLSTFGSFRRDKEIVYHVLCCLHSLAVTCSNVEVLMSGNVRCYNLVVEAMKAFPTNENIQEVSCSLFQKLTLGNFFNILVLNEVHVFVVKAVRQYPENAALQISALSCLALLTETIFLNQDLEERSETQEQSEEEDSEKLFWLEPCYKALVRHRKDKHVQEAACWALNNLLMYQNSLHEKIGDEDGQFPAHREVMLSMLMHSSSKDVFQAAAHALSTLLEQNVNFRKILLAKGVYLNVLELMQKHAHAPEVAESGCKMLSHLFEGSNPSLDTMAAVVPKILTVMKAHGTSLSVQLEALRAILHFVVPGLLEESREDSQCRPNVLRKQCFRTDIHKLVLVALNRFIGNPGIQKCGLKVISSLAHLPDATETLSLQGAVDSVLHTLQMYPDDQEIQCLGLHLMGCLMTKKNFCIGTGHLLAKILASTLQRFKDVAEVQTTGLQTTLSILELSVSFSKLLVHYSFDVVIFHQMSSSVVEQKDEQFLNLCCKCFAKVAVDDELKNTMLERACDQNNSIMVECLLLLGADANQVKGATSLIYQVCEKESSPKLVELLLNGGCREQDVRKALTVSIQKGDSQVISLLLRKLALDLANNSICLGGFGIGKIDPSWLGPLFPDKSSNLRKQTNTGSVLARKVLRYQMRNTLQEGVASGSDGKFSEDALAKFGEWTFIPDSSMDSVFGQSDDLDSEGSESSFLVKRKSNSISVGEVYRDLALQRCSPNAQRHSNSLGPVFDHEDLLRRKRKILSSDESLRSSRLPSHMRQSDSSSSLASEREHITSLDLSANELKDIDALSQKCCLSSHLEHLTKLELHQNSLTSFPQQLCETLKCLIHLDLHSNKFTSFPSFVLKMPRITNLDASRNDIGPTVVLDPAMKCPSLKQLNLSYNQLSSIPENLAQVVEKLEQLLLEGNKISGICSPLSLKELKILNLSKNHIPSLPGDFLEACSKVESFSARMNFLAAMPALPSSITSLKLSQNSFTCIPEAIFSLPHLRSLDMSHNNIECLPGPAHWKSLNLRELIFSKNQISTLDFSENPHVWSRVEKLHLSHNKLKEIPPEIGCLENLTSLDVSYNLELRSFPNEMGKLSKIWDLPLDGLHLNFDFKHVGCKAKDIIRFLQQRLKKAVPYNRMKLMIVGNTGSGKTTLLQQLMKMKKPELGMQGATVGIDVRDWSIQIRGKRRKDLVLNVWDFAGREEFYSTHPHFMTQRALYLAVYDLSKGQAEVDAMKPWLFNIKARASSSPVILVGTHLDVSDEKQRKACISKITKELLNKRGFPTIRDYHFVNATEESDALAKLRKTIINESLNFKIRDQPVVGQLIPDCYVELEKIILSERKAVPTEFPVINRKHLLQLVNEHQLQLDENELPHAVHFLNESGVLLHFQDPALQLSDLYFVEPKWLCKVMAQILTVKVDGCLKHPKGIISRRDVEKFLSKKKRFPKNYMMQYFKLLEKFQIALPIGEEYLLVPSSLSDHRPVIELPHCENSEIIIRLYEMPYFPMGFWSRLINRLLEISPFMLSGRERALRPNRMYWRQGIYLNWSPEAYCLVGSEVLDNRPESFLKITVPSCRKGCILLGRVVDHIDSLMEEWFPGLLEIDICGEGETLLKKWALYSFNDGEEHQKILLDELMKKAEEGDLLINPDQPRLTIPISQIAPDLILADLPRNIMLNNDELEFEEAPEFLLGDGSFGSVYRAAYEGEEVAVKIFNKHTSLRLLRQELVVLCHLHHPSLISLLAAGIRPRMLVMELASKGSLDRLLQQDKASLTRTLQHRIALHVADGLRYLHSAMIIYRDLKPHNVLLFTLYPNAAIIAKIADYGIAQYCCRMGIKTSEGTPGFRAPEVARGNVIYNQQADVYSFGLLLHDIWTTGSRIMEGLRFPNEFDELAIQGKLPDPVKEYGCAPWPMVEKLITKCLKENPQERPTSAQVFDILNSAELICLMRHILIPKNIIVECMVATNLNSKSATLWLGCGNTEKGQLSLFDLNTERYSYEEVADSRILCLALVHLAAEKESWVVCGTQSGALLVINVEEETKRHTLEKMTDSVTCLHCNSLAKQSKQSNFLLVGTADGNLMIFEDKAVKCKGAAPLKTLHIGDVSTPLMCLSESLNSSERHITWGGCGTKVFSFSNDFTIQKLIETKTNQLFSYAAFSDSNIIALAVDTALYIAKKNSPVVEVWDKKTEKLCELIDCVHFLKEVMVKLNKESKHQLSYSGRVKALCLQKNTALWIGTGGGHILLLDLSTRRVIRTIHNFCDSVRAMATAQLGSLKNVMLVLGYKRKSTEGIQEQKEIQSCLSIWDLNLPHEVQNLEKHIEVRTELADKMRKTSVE
Chain of GFP-LRRK2[A2016T] (Q5S007 whole entry A2016T): as the sequence (Q5S007 whole entry A2016T) above

Concentration inducing dephosphorylation of Ser910 and 935 [3] [µM]	inhibition at 1 µM [4] [%]	inhibition at 1 µM [5] [%]	inhibition at 1 µM [7] [%]	inhibition at 1 µM [8] [%]	inhibition at 1 µM [9] [%]	SMILES	Exposure in mouse brains [1]	Inhibition of the A2016T mutant [2]	Ser910 and Ser935 dephosphorylation of LRRK2 in kidney and spleen ([6]; oral gavage 10 mg/kg, 10 mg/kg)	Ser910 and Ser935 dephosphorylation of LRRK2 in kidney and spleen ([6]; oral gavage 50 mg/kg)	Inhibition of LRRK2 Ser910 or Ser935 phosphorylation in the brain ([6]; oral gavage 10 or 50 mg/kg)
						COc1cc(N2CCOCC2)ccc1Nc1ncc(F)c(Nc2ccccc2NS(C)(=O)=O)n1 [CZC-25146]	neither compound is able to achieve good exposure in mouse brains				
						COc1cc(C(=O)N2CCC(N3CCN(C)CC3)CC2)ccc1Nc1ncc2c(n1)N(C)c1ccccc1C(=O)N2C [LRRK2-IN-1]	neither compound is able to achieve good exposure in mouse brains	dramatic resistance			
1 to 3	> 90	> 90	> 90	> 90	> 90	COc1cc(N2CCC(N3CCN(C)CC3)CC2)ccc1Nc1ncc(Cl)c(Nc2ccccc2S(=O)(=O)C(C)C)n1 [TAE684, 5-chloro-N4-(2-(isopropylsulfonyl)phenyl)-N2-(2-methoxy-4-(4-(4-methyl-piperazin-1-yl)piperidin-1-yl)phenyl)pyrimidine-2,4-diamine]		relatively insensitive to the A2016T mutation; also recorded: maintains significant inhibition	slightly lower effect; also recorded: substantially inhibits	complete Ser910 and Ser935 dephosphorylation	no inhibition; also recorded: does not inhibit phosphorylation; also recorded: not in brain
